# Experimental data published in ChEMBL document CHEMBL5729067, “Phenylacetamides as inhibitors of rock” (2022).
# Target: Rho-associated protein kinase 2 (Homo sapiens, UniProt O75116)
# Test: In Vitro Assay: The effectiveness of compounds of the present invention as ROCK inhibitors can be determined in a 30 μL assay containing 20 mM HEPES, pH 7.5, 20 mM MgCl2, 0.015% Brij-35, 4 mM DTT, 5 μM ATP and 1.5 μM peptide substrate (FITC-AHA-AKRRRLSSLRA-OH) (SEQ ID No. 1). Compounds were dissolved in DMSO so that the final concentration of DMSO was <2%, and the reaction was initiated with Rho kinase variants. After incubation, the reaction was terminated by the addition of EDTA and the phosphorylated and non-phosphorylated peptides separated using a LABCHIP® 3000 Reader (Caliper Life Sciences). […] Compounds were tested in dose-response format, and the inhibition of kinase activity was calculated at each concentration of compound. The inhibition data were fit using a curve-fitting program to determine the IC50; i.e., the concentration of compound required to inhibit 50% of kinase activity.
# Rho-associated protein kinase 2, sequence (O75116 whole entry, looked up, change not shown): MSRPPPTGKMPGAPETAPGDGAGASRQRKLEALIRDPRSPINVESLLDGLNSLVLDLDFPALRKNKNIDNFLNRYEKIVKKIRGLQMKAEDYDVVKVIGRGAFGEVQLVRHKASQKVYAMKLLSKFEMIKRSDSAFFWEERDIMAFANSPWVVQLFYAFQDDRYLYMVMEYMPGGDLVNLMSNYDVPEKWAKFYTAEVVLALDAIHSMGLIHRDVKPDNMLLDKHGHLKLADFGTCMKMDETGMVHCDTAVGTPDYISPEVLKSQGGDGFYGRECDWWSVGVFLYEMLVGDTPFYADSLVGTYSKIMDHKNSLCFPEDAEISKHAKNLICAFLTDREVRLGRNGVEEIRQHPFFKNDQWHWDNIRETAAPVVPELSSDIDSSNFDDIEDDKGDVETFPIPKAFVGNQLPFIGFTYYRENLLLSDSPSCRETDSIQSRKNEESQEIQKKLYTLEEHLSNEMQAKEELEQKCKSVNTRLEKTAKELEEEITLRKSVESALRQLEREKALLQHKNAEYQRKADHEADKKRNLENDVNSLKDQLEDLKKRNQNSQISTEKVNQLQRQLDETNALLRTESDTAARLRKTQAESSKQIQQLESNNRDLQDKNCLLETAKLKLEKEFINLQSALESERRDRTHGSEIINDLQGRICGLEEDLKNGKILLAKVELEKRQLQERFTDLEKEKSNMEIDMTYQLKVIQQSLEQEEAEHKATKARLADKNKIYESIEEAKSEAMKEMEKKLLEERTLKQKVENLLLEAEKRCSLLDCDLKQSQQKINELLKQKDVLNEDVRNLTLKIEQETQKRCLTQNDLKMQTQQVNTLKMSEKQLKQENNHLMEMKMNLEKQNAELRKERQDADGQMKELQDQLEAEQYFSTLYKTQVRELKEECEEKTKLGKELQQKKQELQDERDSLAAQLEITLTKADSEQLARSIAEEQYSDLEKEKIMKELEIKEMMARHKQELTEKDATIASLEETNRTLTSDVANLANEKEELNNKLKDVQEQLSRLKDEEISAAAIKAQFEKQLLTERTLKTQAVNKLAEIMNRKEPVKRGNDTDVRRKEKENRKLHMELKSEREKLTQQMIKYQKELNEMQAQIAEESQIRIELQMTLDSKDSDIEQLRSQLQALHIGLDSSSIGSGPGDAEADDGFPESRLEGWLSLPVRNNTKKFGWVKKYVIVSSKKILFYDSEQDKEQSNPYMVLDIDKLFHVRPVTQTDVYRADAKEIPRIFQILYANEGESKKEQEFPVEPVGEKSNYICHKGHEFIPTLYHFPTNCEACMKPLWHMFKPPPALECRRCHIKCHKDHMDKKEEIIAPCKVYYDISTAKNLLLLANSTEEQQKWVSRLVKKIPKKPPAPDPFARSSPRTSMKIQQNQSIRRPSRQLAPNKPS
smiles,measurement,value
Cc1sc(C(=O)Cc2ccc(Oc3ncccc3C(N)=O)cc2)nc1-c1ccccc1,IC50,0.087 µM
